Assay results published in the NIST ThermoML archive (doi:10.1016/j.jct.2012.02.011).
Several values for one entry are separate records, joined by “and”; a condition that tells them apart may be missing. Equal values may be shown once. ± gives the expanded uncertainty stated by the source.

Experiments:
[1] = relative permittivity at various frequencies (dimensionless); details: 101.3 kPa, Liquid, Frequency=3 MHz
[2] = relative permittivity at various frequencies (dimensionless); xn = mol fraction of the nth substance listed; details: 101.33 kPa, Liquid, Frequency=3 MHz, OH-301

Structure (SMILES) | relative permittivity ([1]; 293.15 K, OH-301) | relative permittivity ([1]; 298.15 K, OH-301) | relative permittivity ([1]; 303.15 K, OH-301) | relative permittivity ([1]; 308.15 K, OH-301) | relative permittivity ([1]; 313.15 K, OH-301) | relative permittivity ([2]; 293.15 K, x1 = 1) | relative permittivity ([2]; 298.15 K, x1 = 1) | relative permittivity ([2]; 303.15 K, x1 = 1) | relative permittivity ([2]; 308.15 K, x1 = 1) | relative permittivity ([2]; 313.15 K, x1 = 1) | other results
CCCCOCCO [2-butoxyethan-1-ol] | 9.78 ± 0.04 | 9.35 ± 0.04 | 8.88 ± 0.04 | 8.39 ± 0.04 | 7.91 ± 0.04 | – | – | – | – | – | –
O=[N+]([O-])c1ccccc1 [nitrobenzene] + CCCCOCCO | – | – | – | – | – | 35.91 ± 0.06 | 34.78 ± 0.06 | 33.84 ± 0.05 | 33.13 ± 0.05 | 32.66 ± 0.04 | –
COCCO [2-methoxyethan-1-ol] | 17.38 ± 0.04 | 16.95 ± 0.04 and 16.96 ± 0.04 | 16.56 ± 0.04 | 16.16 ± 0.04 | 15.77 ± 0.04 | – | – | – | – | – | –
CCCOCCO [2-propoxyethanol] | 11.76 ± 0.04 | 11.5 ± 0.04 | 11.19 ± 0.04 | 10.91 ± 0.04 | 10.62 ± 0.04 | – | – | – | – | – | –
CCOCCO [2-ethoxyethan-1-ol] | 14.25 ± 0.04 | 14.03 ± 0.04 | 13.76 ± 0.04 | 13.44 ± 0.04 | 13.07 ± 0.04 | – | – | – | – | – | –
COCCO [2-methoxyethan-1-ol] + O=[N+]([O-])c1ccccc1 | – | – | – | – | – | – | – | – | – | – | relative permittivity ([2]; 293.15 K, x2 = 0): 17.38 ± 0.04; relative permittivity ([2]; 298.15 K, x2 = 0): 16.96 ± 0.04; relative permittivity ([2]; 303.15 K, x2 = 0): 16.56 ± 0.04; relative permittivity ([2]; 308.15 K, x2 = 0): 16.16 ± 0.04; relative permittivity ([2]; 313.15 K, x2 = 0): 15.77 ± 0.04
O=[N+]([O-])c1ccccc1 [nitrobenzene] + CCOCCO | – | – | – | – | – | 35.91 ± 0.06 | 34.78 ± 0.06 | 33.84 ± 0.05 | 33.13 ± 0.05 | 32.66 ± 0.04 | –
O=[N+]([O-])c1ccccc1 [nitrobenzene] | – | – | – | – | – | – | – | – | – | – | relative permittivity ([1]; 293.15 K, OH-301 Stainless Steel Cell): 35.91 ± 0.06; relative permittivity ([1]; 298.15 K, OH-301 Stainless Steel Cell): 34.78 ± 0.04; relative permittivity ([1]; 303.15 K, OH-301 Stainless Steel Cell): 33.84 ± 0.05; relative permittivity ([1]; 308.15 K, OH-301 Stainless Steel Cell): 33.13 ± 0.05; relative permittivity ([1]; 313.15 K, OH-301 Stainless Steel Cell): 32.66 ± 0.04
O=[N+]([O-])c1ccccc1 [nitrobenzene] + CCCOCCO | – | – | – | – | – | 35.91 ± 0.06 | 34.78 ± 0.06 | 33.84 ± 0.05 | 33.13 ± 0.05 | 32.66 ± 0.04 | –
